Assay results as given in the CheMixHub viscosity set.
Where “and” joins values, the source holds several entries; their conditions need not be identical. Equal entries are not always repeated. ± gives the uncertainty stated by the source.

Experiment: xn = mol fraction of the nth substance listed

For `O=P([O-])([O-])[O-].[H+].[K+].[K+]` + O, which viscosity (298.15 K, 101 kPa, x1 = 0.0018) is on record?
The viscosity was 0.931 ± 0.0082 mPa·s.

What about the viscosity (298.15 K, 101 kPa, x1 = 0.0054) of the same compound?
Its viscosity is 1.001 ± 0.0087 mPa·s.

And the viscosity (298.15 K, 101 kPa, x1 = 0.0089)?
The viscosity was 1.091 ± 0.0095 mPa·s.

And the viscosity (298.15 K, 101 kPa, x1 = 0.012)?
The viscosity was 1.203 ± 0.01 mPa·s.

And the viscosity (298.15 K, 101 kPa, x1 = 0.016)?
The viscosity was 1.329 ± 0.011 mPa·s.

What about the viscosity (303.15 K, 101 kPa, x1 = 0.0018) of the same compound?
Its viscosity is 0.8465 ± 0.0078 mPa·s.

What about the viscosity (303.15 K, 101 kPa, x1 = 0.0054) of the same compound?
Its viscosity is 0.9207 ± 0.0083 mPa·s.

What about the viscosity (303.15 K, 101 kPa, x1 = 0.0089) of the same compound?
Its viscosity is 0.9963 ± 0.009 mPa·s.

And the viscosity (303.15 K, 101 kPa, x1 = 0.016)?
The viscosity was 1.204 ± 0.011 mPa·s.

What about the viscosity (308.15 K, 101 kPa, x1 = 0.0018) of the same compound?
The viscosity was 0.7552 ± 0.0073 mPa·s.

What about the viscosity (308.15 K, 101 kPa, x1 = 0.0054) of the same compound?
Its viscosity is 0.814 ± 0.0078 mPa·s.

What about the viscosity (308.15 K, 101 kPa, x1 = 0.0089) of the same compound?
Its viscosity is 0.8844 ± 0.0083 mPa·s.

And the viscosity (308.15 K, 101 kPa, x1 = 0.012)?
Its viscosity is 0.9818 ± 0.0091 mPa·s.

What about the viscosity (308.15 K, 101 kPa, x1 = 0.016) of the same compound?
Its viscosity is 1.081 ± 0.0098 mPa·s.

Which viscosity (293.15 K, 101.3 kPa, x1 = 0.0009) does the source give for `[Cl-].[Cl-].[Mg+2]` + O here?
Its viscosity is 1.025 ± 0.022 mPa·s.

What about the viscosity (293.15 K, 101.3 kPa, x1 = 0.0018) of the same compound?
The viscosity was 1.046 ± 0.022 mPa·s.

And the viscosity (293.15 K, 101.3 kPa, x1 = 0.00893)?
The viscosity was 1.219 ± 0.026 mPa·s.

And the viscosity (293.15 K, 101.3 kPa, x1 = 0.0177)?
The viscosity was 1.475 ± 0.031 mPa·s.

And the viscosity (293.15 K, 101.3 kPa, x1 = 0.03478)?
The viscosity was 2.199 ± 0.047 mPa·s.

What about the viscosity (293.15 K, 101.3 kPa, x1 = 0.05127) of the same compound?
The viscosity was 3.332 ± 0.071 mPa·s.

And the viscosity (293.15 K, 101.3 kPa, x1 = 0.06722)?
Its viscosity is 5.271 ± 0.11 mPa·s.

And the viscosity (293.15 K, 101.3 kPa, x1 = 0.08263)?
Its viscosity is 9.001 ± 0.19 mPa·s.

What about the viscosity (298.15 K, 101 kPa, x1 = 0.0944) of the same compound?
The viscosity was 13.8 ± 0.4 mPa·s.

And the viscosity (298.15 K, 101.3 kPa, x1 = 0.0009)?
Its viscosity is 0.911 ± 0.019 mPa·s.

And the viscosity (298.15 K, 101.3 kPa, x1 = 0.0018)?
Its viscosity is 0.9296 ± 0.02 mPa·s and 0.936 ± 0.038 mPa·s.

What about the viscosity (298.15 K, 101.3 kPa, x1 = 0.0045) of the same compound?
The viscosity was 0.988 ± 0.04 mPa·s.

What about the viscosity (298.15 K, 101.3 kPa, x1 = 0.0089) of the same compound?
Its viscosity is 1.075 ± 0.043 mPa·s.

And the viscosity (298.15 K, 101.3 kPa, x1 = 0.00893)?
The viscosity was 1.085 ± 0.023 mPa·s.

What about the viscosity (298.15 K, 101.3 kPa, x1 = 0.0177) of the same compound?
The viscosity was 1.314 ± 0.028 mPa·s.

What about the viscosity (298.15 K, 101.3 kPa, x1 = 0.03478) of the same compound?
The viscosity was 1.95 ± 0.041 mPa·s.

And the viscosity (298.15 K, 101.3 kPa, x1 = 0.05127)?
Its viscosity is 2.937 ± 0.063 mPa·s.

And the viscosity (298.15 K, 101.3 kPa, x1 = 0.06722)?
Its viscosity is 4.603 ± 0.098 mPa·s.

And the viscosity (298.15 K, 101.3 kPa, x1 = 0.08263)?
The viscosity was 7.752 ± 0.17 mPa·s.

What about the viscosity (303.15 K, 101.3 kPa, x1 = 0.0009) of the same compound?
Its viscosity is 0.8162 ± 0.017 mPa·s.

What about the viscosity (303.15 K, 101.3 kPa, x1 = 0.0018) of the same compound?
The viscosity was 0.8329 ± 0.018 mPa·s.

And the viscosity (303.15 K, 101.3 kPa, x1 = 0.00893)?
Its viscosity is 0.9729 ± 0.021 mPa·s.

And the viscosity (303.15 K, 101.3 kPa, x1 = 0.0177)?
The viscosity was 1.179 ± 0.025 mPa·s.

And the viscosity (303.15 K, 101.3 kPa, x1 = 0.03478)?
The viscosity was 1.747 ± 0.037 mPa·s.

What about the viscosity (303.15 K, 101.3 kPa, x1 = 0.05127) of the same compound?
The viscosity was 2.616 ± 0.055 mPa·s.

What about the viscosity (303.15 K, 101.3 kPa, x1 = 0.06722) of the same compound?
The viscosity was 4.064 ± 0.087 mPa·s.

What about the viscosity (303.15 K, 101.3 kPa, x1 = 0.08263) of the same compound?
The viscosity was 6.761 ± 0.14 mPa·s.

What about the viscosity (308.15 K, 101.3 kPa, x1 = 0.0009) of the same compound?
The viscosity was 0.7364 ± 0.016 mPa·s.

What about the viscosity (308.15 K, 101.3 kPa, x1 = 0.0018) of the same compound?
The viscosity was 0.7517 ± 0.016 mPa·s and 0.759 ± 0.031 mPa·s.

What about the viscosity (308.15 K, 101.3 kPa, x1 = 0.0045) of the same compound?
The viscosity was 0.798 ± 0.032 mPa·s.

And the viscosity (308.15 K, 101.3 kPa, x1 = 0.0089)?
Its viscosity is 0.867 ± 0.035 mPa·s.

What about the viscosity (308.15 K, 101.3 kPa, x1 = 0.00893) of the same compound?
The viscosity was 0.8788 ± 0.019 mPa·s.

What about the viscosity (308.15 K, 101.3 kPa, x1 = 0.0177) of the same compound?
Its viscosity is 1.065 ± 0.023 mPa·s.

And the viscosity (308.15 K, 101.3 kPa, x1 = 0.03478)?
Its viscosity is 1.574 ± 0.033 mPa·s.

And the viscosity (308.15 K, 101.3 kPa, x1 = 0.05127)?
Its viscosity is 2.346 ± 0.05 mPa·s.

What about the viscosity (308.15 K, 101.3 kPa, x1 = 0.06722) of the same compound?
The viscosity was 3.615 ± 0.077 mPa·s.

And the viscosity (308.15 K, 101.3 kPa, x1 = 0.08263)?
The viscosity was 5.951 ± 0.13 mPa·s.

And the viscosity (318.15 K, 101.3 kPa, x1 = 0.0009)?
The viscosity was 0.6104 ± 0.013 mPa·s.

And the viscosity (318.15 K, 101.3 kPa, x1 = 0.0018)?
The viscosity was 0.629 ± 0.025 mPa·s.

And the viscosity (318.15 K, 101.3 kPa, x1 = 0.0045)?
Its viscosity is 0.662 ± 0.027 mPa·s.

What about the viscosity (318.15 K, 101.3 kPa, x1 = 0.0089) of the same compound?
The viscosity was 0.72 ± 0.029 mPa·s.

What about the viscosity (318.15 K, 101.3 kPa, x1 = 0.00893) of the same compound?
Its viscosity is 0.7293 ± 0.015 mPa·s.

What about the viscosity (318.15 K, 101.3 kPa, x1 = 0.0177) of the same compound?
Its viscosity is 0.8849 ± 0.019 mPa·s.

And the viscosity (318.15 K, 101.3 kPa, x1 = 0.03478)?
Its viscosity is 1.302 ± 0.027 mPa·s.

What about the viscosity (318.15 K, 101.3 kPa, x1 = 0.05127) of the same compound?
Its viscosity is 1.926 ± 0.041 mPa·s.

What about the viscosity (318.15 K, 101.3 kPa, x1 = 0.06722) of the same compound?
The viscosity was 2.926 ± 0.062 mPa·s.

And the viscosity (318.15 K, 101.3 kPa, x1 = 0.08263)?
The viscosity was 4.726 ± 0.1 mPa·s.

Which viscosity (298.15 K, 101 kPa, x2 = 0.118) does the source give for `CCCCOCCO` + O=C1CCCCC1 here?
Its viscosity is 2.522 ± 0.06 mPa·s and 2.642 ± 0.019 mPa·s.

And the viscosity (298.15 K, 101 kPa, x2 = 0.2314)?
The viscosity was 2.28 ± 0.049 mPa·s and 2.518 ± 0.019 mPa·s.

What about the viscosity (298.15 K, 101 kPa, x2 = 0.3404) of the same compound?
Its viscosity is 2.108 ± 0.041 mPa·s and 2.402 ± 0.018 mPa·s.

What about the viscosity (298.15 K, 101 kPa, x2 = 0.4453) of the same compound?
The viscosity was 1.972 ± 0.035 mPa·s and 2.304 ± 0.017 mPa·s.

What about the viscosity (298.15 K, 101 kPa, x2 = 0.5463) of the same compound?
Its viscosity is 1.873 ± 0.03 mPa·s and 2.217 ± 0.017 mPa·s.

And the viscosity (298.15 K, 101 kPa, x2 = 0.6436)?
Its viscosity is 1.795 ± 0.026 mPa·s and 2.146 ± 0.016 mPa·s.

What about the viscosity (298.15 K, 101 kPa, x2 = 0.7375) of the same compound?
Its viscosity is 1.763 ± 0.022 mPa·s and 2.087 ± 0.016 mPa·s.

What about the viscosity (298.15 K, 101 kPa, x2 = 0.8281) of the same compound?
The viscosity was 1.766 ± 0.02 mPa·s and 2.048 ± 0.015 mPa·s.

What about the viscosity (298.15 K, 101 kPa, x2 = 0.9155) of the same compound?
Its viscosity is 1.822 ± 0.018 mPa·s and 2.024 ± 0.015 mPa·s.
